The values that follow come from publication PMC7878489, “Gene delivery corrects N-acetylglutamate synthase deficiency and enables insights in the physiological impact of L-arginine activation of N-acetylglutamate synthase” (Scientific Reports, 2021).

For one test, the target named is T1, hNAGS (human NAGS) (Homo sapiens, UniProt Q8N159).
T1 construct: appears to be tetramer
T1 sequence (Q8N159 51-534): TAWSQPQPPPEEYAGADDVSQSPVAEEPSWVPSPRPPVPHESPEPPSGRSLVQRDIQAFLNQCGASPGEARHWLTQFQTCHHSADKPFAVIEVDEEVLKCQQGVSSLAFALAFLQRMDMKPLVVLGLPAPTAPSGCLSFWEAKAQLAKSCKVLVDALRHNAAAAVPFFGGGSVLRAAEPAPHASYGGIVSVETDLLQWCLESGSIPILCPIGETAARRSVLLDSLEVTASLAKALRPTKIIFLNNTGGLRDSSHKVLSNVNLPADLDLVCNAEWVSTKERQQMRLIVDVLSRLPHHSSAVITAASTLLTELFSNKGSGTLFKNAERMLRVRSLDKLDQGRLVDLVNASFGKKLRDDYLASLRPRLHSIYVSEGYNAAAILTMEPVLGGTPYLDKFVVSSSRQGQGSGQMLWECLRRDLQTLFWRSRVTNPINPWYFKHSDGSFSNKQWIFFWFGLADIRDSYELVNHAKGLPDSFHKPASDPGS
In words: NAGS specific activity. In kind it is biochemical.

Another test has as its target T2, mNAGS (mouse NAGS) (Mus musculus, UniProt Q8R4H7).
T2 construct: appears to be tetramer
T2 sequence (Q8R4H7 51-527): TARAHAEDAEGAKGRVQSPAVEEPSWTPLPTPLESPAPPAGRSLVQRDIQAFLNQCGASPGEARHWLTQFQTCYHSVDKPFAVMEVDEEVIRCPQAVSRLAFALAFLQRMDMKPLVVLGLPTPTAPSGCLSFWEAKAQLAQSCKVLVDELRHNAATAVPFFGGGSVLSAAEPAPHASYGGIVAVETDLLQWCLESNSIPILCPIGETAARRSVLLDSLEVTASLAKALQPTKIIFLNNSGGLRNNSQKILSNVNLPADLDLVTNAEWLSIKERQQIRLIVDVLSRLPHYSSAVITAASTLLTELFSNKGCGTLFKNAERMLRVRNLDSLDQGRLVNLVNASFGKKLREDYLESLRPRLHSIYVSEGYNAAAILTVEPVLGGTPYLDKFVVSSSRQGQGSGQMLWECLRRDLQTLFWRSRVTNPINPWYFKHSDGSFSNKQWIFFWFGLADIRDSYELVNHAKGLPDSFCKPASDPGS
Nature of the test: NAGS specific activity. In kind it is biochemical.

Turning to `CC(=O)SCCNC(=O)CCNC(=O)[C@H](O)C(C)(C)COP(=O)(O)OP(=O)(O)OC[C@H]1O[C@@H](n2cnc3c(N)ncnc32)[C@H](O)[C@@H]1OP(=O)(O)O` [acetyl coenzyme A], the NAGS specific activity result on hNAGS (human NAGS) (co-substrate glutamate) was “catalyzes formation of N-acetylglutamate (NAG) from glutamate and acetyl coenzyme A”; at mNAGS (mouse NAGS) (co-substrate glutamate), “catalyzes formation of N-acetylglutamate (NAG) from glutamate and acetyl coenzyme A”.
Consider `N[C@@H](CCC(=O)O)C(=O)O` [glutamate], for which the NAGS specific activity result at hNAGS (human NAGS) (co-substrate acetyl coenzyme A) is “catalyzes formation of N-acetylglutamate (NAG) from glutamate and acetyl coenzyme A”; at mNAGS (mouse NAGS) (co-substrate acetyl coenzyme A) it was “catalyzes formation of N-acetylglutamate (NAG) from glutamate and acetyl coenzyme A”.
